Assay results reported in patent US10435392B2, “Bipyrazole derivatives as JAK inhibitors” (Incyte Corporation, priority 2013, dated 2019).
Where a name gives a salt, the structure may show the parent alone.

tested on: human JAK1; experiment: In vitro JAK kinase assay (HTRF, phosphorylation of a biotinylated peptide), JAK1; assay type: biochemical; conditions: ratio of IC50 values at 1 mM ATP
Method: The catalytic activity of JAK1, JAK2 or JAK3 was assayed by measuring the phosphorylation of a biotinylated peptide. The phosphorylated peptide was detected by homogenous time resolved fluorescence (HTRF). […] Reactions were carried out at room temperature for 1 hour and then stopped with 20 μL 45 mM EDTA, 300 nM SA-APC, 6 nM Eu-Py20 in assay buffer (Perkin Elmer, Boston, Mass.). Binding to the Europium labeled antibody took place for 40 minutes and HTRF signal was measured on a Fusion plate reader (Perkin Elmer, Boston, Mass.).

SMILES	JAK2/JAK1
Cc1[nH]ncc1-c1cnn(C2(CC#N)CN(c3cnc(C(=O)N[C@@H](C)C(F)(F)F)cn3)C2)c1 [Example 1, 5-[3-(Cyanomethyl)-3-(3′-methyl-1H,1′H-4,4′-bipyrazol-1-yl)azetidin-1-yl]-N-[(1S)-2,2,2-trifluoro-1-methylethyl]pyrazine-2-carboxamide trifluoroacetate]	>10
Cc1n[nH]cc1-c1cnn(C2(CC#N)CN(c3cnc(C(=O)NC(C)C)cn3)C2)c1 [Example 2, 5-[3-(Cyanomethyl)-3-(3′-methyl-1H,1′H-4,4′-bipyrazol-1-yl)azetidin-1-yl]-N-isopropylpyrazine-2-carboxamide Trifluoroacetate]	>10
Cc1n[nH]cc1-c1cnn(C2(CC#N)CN(c3ccc(C(=O)NC(C)C)cc3)C2)c1 [Example 3, 4-[3-(Cyanomethyl)-3-(3′-methyl-1H,1′H-4,4′-bipyrazol-1-yl)azetidin-1-yl]-N-isopropylbenzamide Trifluoroacetate]	>10
C[C@H](NC(=O)c1cc(F)c(N2CC(CC#N)(n3cc(-c4cn[nH]c4)cn3)C2)cc1F)C(F)(F)F [Example 5, 4-[3-(1H,1′H-4,4′-Bipyrazol-1-yl)-3-(cyanomethyl)azetidin-1-yl]-2,5-difluoro-N-[(1S)-2,2,2-trifluoro-1-methylethyl]benzamide Trifluoroacetate]	>10

Further lines, results first:

JAK2/JAK1	SMILES
>10	Cc1n[nH]cc1-c1cn(C2(CC#N)CN(c3cnc(C(=O)NC(C)C)cn3)C2)nc1C [Example 6, 5-[3-(Cyanomethyl)-3-(3,3′-dimethyl-1H,1′H-4,4′-bipyrazol-1-yl)azetidin-1-yl]-N-isopropylpyrazine-2-carboxamide Trifluoroacetate]
>10	Cc1n[nH]c(C)c1-c1cnn(C2(CC#N)CN(c3cnc(C(=O)N[C@@H](C)C(F)(F)F)cn3)C2)c1 [Example 9, 5-[3-(Cyanomethyl)-3-(3′,5′-dimethyl-1H,1′H-4,4′-bipyrazol-1-yl)azetidin-1-yl]-N-[(1S)-2,2,2-trifluoro-1-methylethyl]pyrazine-2-carboxamide Trifluoroacetate]
>10	Cc1n[nH]cc1-c1cn(C2(CC#N)CN(c3cc(F)c(C(=O)N[C@@H](C)C(F)(F)F)cc3F)C2)nc1CO [Example 13, 4-{3-(Cyanomethyl)-3-[3-(hydroxymethyl)-3′-methyl-1H,1′H-4,4′-bipyrazol-1-yl]azetidin-1-yl}-2,5-difluoro-N-[(1S)-2,2,2-trifluoro-1-methylethyl]benzamide]
